Tests used:
Assay in all cases: relative viability (nuclei count vs DMSO), 5 days (fraction); higher = more cells survive
Imatinib + Palbociclib = compound: Cc1ccc(NC(=O)c2ccc(CN3CCN(C)CC3)cc2)cc1Nc1nccc(-c2cccnc2)n1 [Imatinib] + CC(=O)c1c(C)c2cnc(Nc3ccc(N4CCNCC4)cn3)nc2n(C2CCCC2)c1=O [Palbociclib] (partner 0.5 µM)
In short: (§1)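 Relative viability was taken as the ratio of nuclei in treated wells to nuclei in vehicle wells. Lung cancer cell lines in 1536-well plates received compounds by pin tool one day after seeding, either one drug alone or a fixed anchor-drug dose plus five library-drug doses (not always all listed) in √10 steps. Nuclei were counted on 4× images after 5 days of treatment, and values are medians of duplicate plates.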

Imatinib + OSI-027 = compound: Cc1ccc(NC(=O)c2ccc(CN3CCN(C)CC3)cc2)cc1Nc1nccc(-c2cccnc2)n1 [Imatinib] + COc1cccc2cc(-c3nc([C@H]4CC[C@H](C(=O)O)CC4)n4ncnc(N)c34)[nH]c12 [OSI-027] (partner 0.5 µM)
In short: as §1

Imatinib + AZD7762 = compound: Cc1ccc(NC(=O)c2ccc(CN3CCN(C)CC3)cc2)cc1Nc1nccc(-c2cccnc2)n1 [Imatinib] + NC(=O)Nc1cc(-c2cccc(F)c2)sc1C(=O)N[C@H]1CCCNC1 [AZD7762] (partner 0.2 µM)
In short: as §1

Imatinib + Dasatinib = compound: Cc1ccc(NC(=O)c2ccc(CN3CCN(C)CC3)cc2)cc1Nc1nccc(-c2cccnc2)n1 [Imatinib] + Cc1nc(Nc2ncc(C(=O)Nc3c(C)cccc3Cl)s2)cc(N2CCN(CCO)CC2)n1 [Dasatinib] (partner 0.075 µM)
In short: as §1

| Cell Line | relative viability (Imatinib + Palbociclib; first compound 0.02 µM) | relative viability (Imatinib + Palbociclib; first compound 0.06325 µM) | relative viability (Imatinib + Palbociclib; first compound 0.2 µM) | relative viability (Imatinib + Palbociclib; first compound 0.6325 µM) | relative viability (Imatinib + Palbociclib; first compound 2 µM) | relative viability (Imatinib + OSI-027; first compound 0.02 µM) | relative viability (Imatinib + OSI-027; first compound 0.06325 µM) | relative viability (Imatinib + OSI-027; first compound 0.2 µM) | relative viability (Imatinib + OSI-027; first compound 0.6325 µM) | relative viability (Imatinib + OSI-027; first compound 2 µM) | relative viability (Imatinib + AZD7762; first compound 0.02 µM) | relative viability (Imatinib + AZD7762; first compound 0.06325 µM) | relative viability (Imatinib + AZD7762; first compound 0.2 µM) | relative viability (Imatinib + AZD7762; first compound 0.6325 µM) | relative viability (Imatinib + AZD7762; first compound 2 µM) | relative viability (Imatinib + Dasatinib; first compound 0.02 µM) | relative viability (Imatinib + Dasatinib; first compound 0.06325 µM) | relative viability (Imatinib + Dasatinib; first compound 0.2 µM) | relative viability (Imatinib + Dasatinib; first compound 0.6325 µM) | relative viability (Imatinib + Dasatinib; first compound 2 µM) |
| --- | --- | --- | --- | --- | --- | --- | --- | --- | --- | --- | --- | --- | --- | --- | --- | --- | --- | --- | --- | --- |
| NCI-H2170 | 0.399 | 0.438 | 0.431 | 0.408 | 0.382 | 0.67 | 0.602 | 0.769 | 0.584 | 0.625 | 0.94 | 0.77 | 0.86 | 0.745 | 0.773 | 0.636 | 0.582 | 0.477 | 0.48 | 0.411 |
| NCI-H2347 | 0.498 | – | 0.425 | 0.424 | 0.405 | 0.287 | 0.384 | 0.318 | 0.442 | 0.426 | 0.824 | – | 0.848 | – | 0.657 | 0.317 | 0.266 | 0.256 | 0.283 | 0.251 |
| NCI-H2405 | 0.534 | 0.57 | 0.533 | 0.493 | 0.572 | 0.629 | – | 0.645 | 0.592 | 0.641 | 0.813 | 0.791 | 0.706 | 0.635 | 0.651 | 0.22 | – | 0.203 | 0.217 | 0.192 |
| NCI-H3122 | 0.194 | 0.19 | 0.199 | 0.192 | 0.205 | 1.11 | 0.831 | 1.09 | – | 1.1 | – | – | 1.07 | 0.926 | 1.05 | – | 0.518 | 0.921 | 0.894 | 0.808 |
| PC-3 [JPC-3] | 0.581 | – | – | 0.763 | 0.539 | 0.792 | – | 0.854 | 0.877 | 0.711 | 0.979 | – | – | 0.921 | 0.635 | 1.1 | – | 0.955 | 0.931 | 0.778 |
| PC-14 | 0.655 | 0.633 | 0.558 | 0.524 | 0.542 | 0.991 | 0.282 | 0.856 | 0.76 | 0.833 | 0.465 | 0.477 | 0.338 | 0.453 | 0.334 | 0.221 | 0.201 | 0.2 | 0.196 | 0.239 |
| RERF-LC-KJ | 1.11 | 1.23 | 1.07 | 0.981 | 1.09 | 0.598 | 0.418 | 0.544 | 0.492 | 0.551 | 1.01 | 0.523 | 1.19 | 0.88 | 0.967 | 0.927 | 0.602 | 0.987 | 0.771 | 0.841 |
| SW 900 | 0.549 | 0.644 | 0.617 | 0.566 | 0.588 | 0.564 | 0.397 | 0.548 | 0.583 | 0.496 | 0.784 | 0.572 | 0.605 | 0.619 | 0.529 | 0.552 | 0.412 | 0.641 | 0.48 | 0.567 |
